Measurements taken from publication PMC2213148 (The Journal of Experimental Medicine, 2005).

T1: PPAR-γ (Homo sapiens, UniProt P37231)
T1 sequence (P37231 231-505 limits assumed): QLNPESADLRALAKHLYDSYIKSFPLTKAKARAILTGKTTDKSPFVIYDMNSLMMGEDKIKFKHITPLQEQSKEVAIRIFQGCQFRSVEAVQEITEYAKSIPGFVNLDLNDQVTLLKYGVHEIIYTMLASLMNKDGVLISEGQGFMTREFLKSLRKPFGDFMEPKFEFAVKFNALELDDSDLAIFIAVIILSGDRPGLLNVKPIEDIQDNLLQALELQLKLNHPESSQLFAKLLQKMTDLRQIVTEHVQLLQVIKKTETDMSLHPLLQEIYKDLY


How the values were obtained:
[1] = target: T1, PPAR-γ; assay: competitive radioligand binding with [3H]rosiglitazone on purified LBD
[2] = target: GST-DRIP-205 fusion protein (UniProt Q15648 1-1581); assay: pull-down
Sequence of GST-DRIP-205 fusion protein (Q15648 whole entry, the tested form may be a part): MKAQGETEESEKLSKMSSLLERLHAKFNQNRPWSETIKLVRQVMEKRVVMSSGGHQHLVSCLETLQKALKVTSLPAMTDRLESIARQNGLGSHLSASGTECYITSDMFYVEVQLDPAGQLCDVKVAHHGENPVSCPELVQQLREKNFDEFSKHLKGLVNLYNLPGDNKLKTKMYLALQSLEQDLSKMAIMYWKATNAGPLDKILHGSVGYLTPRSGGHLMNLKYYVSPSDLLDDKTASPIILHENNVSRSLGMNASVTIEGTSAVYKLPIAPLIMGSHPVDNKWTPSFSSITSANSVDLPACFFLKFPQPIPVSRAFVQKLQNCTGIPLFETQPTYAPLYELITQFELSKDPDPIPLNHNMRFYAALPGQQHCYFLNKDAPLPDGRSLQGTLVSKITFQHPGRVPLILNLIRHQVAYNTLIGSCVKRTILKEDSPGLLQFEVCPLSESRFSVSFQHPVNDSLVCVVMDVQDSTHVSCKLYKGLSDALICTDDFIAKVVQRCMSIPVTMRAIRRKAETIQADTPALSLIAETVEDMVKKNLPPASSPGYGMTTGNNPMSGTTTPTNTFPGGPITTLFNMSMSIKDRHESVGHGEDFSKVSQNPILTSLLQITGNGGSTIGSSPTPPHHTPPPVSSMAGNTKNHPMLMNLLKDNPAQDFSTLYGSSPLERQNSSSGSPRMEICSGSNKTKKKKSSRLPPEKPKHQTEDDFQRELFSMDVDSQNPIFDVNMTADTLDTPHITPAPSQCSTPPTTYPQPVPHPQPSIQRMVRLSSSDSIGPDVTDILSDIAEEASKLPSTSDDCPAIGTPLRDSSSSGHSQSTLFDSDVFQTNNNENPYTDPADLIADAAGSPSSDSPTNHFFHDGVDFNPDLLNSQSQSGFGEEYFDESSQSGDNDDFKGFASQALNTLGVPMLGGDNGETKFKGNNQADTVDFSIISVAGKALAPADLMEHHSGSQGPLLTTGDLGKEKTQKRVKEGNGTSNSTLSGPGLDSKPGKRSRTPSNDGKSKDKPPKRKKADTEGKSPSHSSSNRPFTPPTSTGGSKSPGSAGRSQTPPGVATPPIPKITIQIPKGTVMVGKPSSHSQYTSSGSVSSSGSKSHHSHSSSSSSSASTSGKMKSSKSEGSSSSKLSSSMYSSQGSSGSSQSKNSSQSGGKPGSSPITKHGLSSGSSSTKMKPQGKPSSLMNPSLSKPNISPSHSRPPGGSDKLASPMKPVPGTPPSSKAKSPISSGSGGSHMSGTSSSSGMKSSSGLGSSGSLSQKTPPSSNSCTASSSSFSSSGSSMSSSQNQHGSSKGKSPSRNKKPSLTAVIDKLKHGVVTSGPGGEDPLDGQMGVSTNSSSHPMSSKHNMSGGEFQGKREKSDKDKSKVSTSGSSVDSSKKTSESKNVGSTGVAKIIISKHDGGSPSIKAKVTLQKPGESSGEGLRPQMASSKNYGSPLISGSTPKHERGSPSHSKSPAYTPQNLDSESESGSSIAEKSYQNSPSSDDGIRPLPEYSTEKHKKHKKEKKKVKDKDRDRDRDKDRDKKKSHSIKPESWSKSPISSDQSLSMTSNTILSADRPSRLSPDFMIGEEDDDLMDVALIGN

Molecule	Ki [1] [mM]	amount bound with 5-ASA (5 mM) relative to that with rosiglitazone (10^-5 M) [2] [%]
Nc1ccc(O)c(C(=O)O)c1 [5-ASA]	28.7	–
[35S]methionine-labeled human PPAR-γ (receptor, UniProt P37231-1 1-505, looked up, [35S]methionine-labeled) MGETLGDSPIDPESDSFTDTLSANISQEMTMVDTEMPFWPTNFGISSVDLSVMEDHSHSFDIKPFTTVDFSSISTPHYEDIPFTRTDPVVADYKYDLKLQEYQSAIKVEPASPPYYSEKTQLYNKPHEEPSNSLMAIECRVCGDKASGFHYGVHACEGCKGFFRRTIRLKLIYDRCDLNCRIHKKSRNKCQYCRFQKCLAVGMSHNAIRFGRMPQAEKEKLLAEISSDIDQLNPESADLRALAKHLYDSYIKSFPLTKAKARAILTGKTTDKSPFVIYDMNSLMMGEDKIKFKHITPLQEQSKEVAIRIFQGCQFRSVEAVQEITEYAKSIPGFVNLDLNDQVTLLKYGVHEIIYTMLASLMNKDGVLISEGQGFMTREFLKSLRKPFGDFMEPKFEFAVKFNALELDDSDLAIFIAVIILSGDRPGLLNVKPIEDIQDNLLQALELQLKLNHPESSQLFAKLLQKMTDLRQIVTEHVQLLQVIKKTETDMSLHPLLQEIYKDLY	–	~150
